Measured values from US6573259B2, “Inhibitors of interleukin-1β converting enzyme” (Vertex Pharmaceuticals Incorporated, priority 1996, dated 2003).

Legend:
[1] = tested on: Human Peripheral Blood Mononuclear Cells (PBMC); assay: PBMC cell assay (IL-1β assay with human PBMC, LPS stimulated, ELISA); format: cell-based; details: LPS 5 ng/ml, 16-18 hr
Excerpt: IL-L1β Assay with a Mixed Population of Human Peripheral Blood Mononuclear Cells (PBMC) or Enriched Adherent Mononuclear Cells
Processing of pre-IL-1β by ICE can be measured in cell culture using a variety of cell sources. Human PBMC obtained from healthy donors provides a mixed population of lymphocyte subtypes and mononuclear cells that produce a spectrum of interleukins and cytokines in response to many classes of physiological stimulators. Adherent mononuclear cells from PBMC provides an enriched source of normal monocytes for selective studies of cytokine production by activated cells.
An initial dilution series of test compound in DMSO or ethanol is prepared, with a subsequent dilution into RPMI-10% FBS media (containing 2 mM L-glutamine, 10 mM HEPES, 50 U and 50 ug/ml pen/strep) respectively to yield drugs at 4× the final test concentration containing 0.4% DMSO or 0.4% ethanol. The final concentration of DMSO is 0.1% for all drug dilutions. A concentration titration which brackets the apparent Ki for a test compound determined in an ICE inhibition assay is generally used for the primary compound screen.
Generally 5-6 compound dilutions are tested and the cellular component of the assay is performed in duplicate, with duplicate ELISA determinations on each cell culture supernatant.
Buffy coat cells isolated from one pint human blood (yielding 40-45 ml final volume plasma plus cells) are diluted with media to 80 ml and LeukoPREP separation tubes (Becton Dickinson) are each overlaid with 10 ml of cell suspension. After 15 min centrifugation at 1500-1800 xg, the plasma/media layer is aspirated and then the mononuclear cell layer is collected with a Pasteur pipette and transferred to a 15 ml conical centrifuge tube (Corning). […] The PBMC pellet is resuspended in a small volume of media, the cells are counted and adjusted to 6×10^6 cells/ml. […]
The skilled practitioner realizes that values obtained in cell assays, such as those described herein, can depend on multiple factors. The values may not necessarily represent fine quantitative results.

Human whole blood = assay: Whole blood assay for IL-1β production; format: cell-based; details: 16-18 hr
Protocol: Whole Blood Assay for IL-1β Production
The whole blood assay is a simple method for measuring the production of IL-1β (or other cytokines) and the activity of potential inhibitors. The complexity of this assay system, with its full complement of lymphoid and inflammatory cell types, spectrum of plasma proteins and red blood cells is an ideal in vitro representation of human in vivo physiologic conditions.
Set incubator or water bath at 30° C. Aliquot 0.25 ml of blood into 1.5 ml eppendorf tubes, making sure to invert the whole blood sample tubes after every two aliquots. Differences in replicates may result if the cells sediment and are not uniformly suspended. Use of a positive displacement pipette will also minimize differences between replicate aliquots.
Prepare drug dilutions in sterile pyrogen-free saline by serial dilution. A dilution series which brackets the apparent Ki for a test compound determined in an ICE inhibition assay is generally used for the primary compound screen. For extremely hydrophobic compounds, prepare compound dilutions in fresh plasma obtained from the same blood donor or in PBS-containing 5% DMSO to enhance solubility.
Add 25 μl test compound dilution or vehicle control and gently mix the sample. Then add 5.0 μl LPS solution (250 ng/ml stocked prepared fresh: 5.0 ng/ml final concentration LPS), and mix again. Incubate the tubes at […] in a water bath for 16-18 hr with occasional mixing. Alternatively, the tubes can be placed in a rotator set at 4 rpm for the same incubation period. This assay should be set up in duplicate or triplicate with the following controls: negative control—no LPS; positive control—no test inhibitor; vehicle control—the highest concentration of DMSO or compound solvent used in the experiment. Additional saline is added to all control tubes to normalize volumes for both control and experimental whole blood test samples.
After the incubation period, whole blood samples are centrifuged for 10 minutes at ˜2000 rpm in the microfuge, plasma is transferred to a fresh microfuge tube and centrifuged at 1000×g to pellet residual platelets if necessary. Plasma samples may be stored frozen at −70° C. prior to assay for cytokine levels by ELISA.
R & D Systems (614 McKinley Place N.E. Minneapolis, Minn. 55413) Quantikine kits may be used for measurement of IL-1β and TNF-α. The assays are performed according to the manufacturer's directions. IL-1β levels of ˜1-5 ng/ml in positive controls among a range of individuals may be observed. A 1:200 dilution of plasma for all samples is usually sufficient for experiments for ELISA results to fall on the linear range of the ELISA standard curves. It may be necessary to optimize standard dilutions if you observe differences in the whole blood assay. Nerad, J. L. et al., J. Leukocyte Biol., 52, pp. 687-692 (1992).

[2] = Table 4, mature IL-1β in supernatant

SMILES | IC50 (Human whole blood; Table 2, LPS 5.0 ng/ml) | IC50 (Human whole blood; Table 4, LPS 5.0 ng/ml) | also measured
O=C[C@H](CC(=O)O)NC(=O)CN1C(=O)C(NC(=O)c2ccc(O)c(Cl)c2)N=C(c2ccccc2)c2ccccc21 (some centres unmarked) [Example 50] |  |  | IC50 [1, 2]: > 8 µM
Nc1ccc(C(=O)NC2N=C(c3ccccc3)c3ccccc3N(CC(=O)N[C@H](C=O)CC(=O)O)C2=O)cc1Cl (some centres unmarked) [Example 18] | > 20 µM |  | 
COc1cccc(OC)c1C(=O)C(=O)NC1N=C(c2ccccc2)c2ccccc2N(CC(=O)N[C@H](C=O)CC(=O)O)C1=O (some centres unmarked) [Example 49] |  |  | IC50 [1, 2]: > 8 µM
Nc1c(Cl)cc(C(=O)NC2N=C(c3ccccc3)c3ccccc3N(CC(=O)N[C@H](C=O)CC(=O)O)C2=O)cc1Cl (some centres unmarked) [Example 7] | > 20 µM |  | 
Cc1cc(C(=O)NC2N=C(c3ccccc3)c3cc(N)ccc3N(CC(=O)N[C@H](C=O)CC(=O)O)C2=O)cc(C)c1O (some centres unmarked) [Example 59] |  | 9.2 µM | 
COc1ccc(Cl)cc1S(=O)(=O)NC1N=C(c2ccccc2)c2ccccc2N(CC(=O)N[C@H](C=O)CC(=O)O)C1=O (some centres unmarked) [Example 39] |  | > 20 µM | 
Cc1cc(C(=O)NC2N=C(c3ccccc3)c3cc(NC=O)ccc3N(CC(=O)N[C@H](C=O)CC(=O)O)C2=O)cc(C)c1O (some centres unmarked) [Example 58] |  | > 20 µM | 
O=C[C@H](CC(=O)O)NC(=O)CN1C(=O)C(NC(=O)OCc2ccccc2)N=C(c2ccccc2)c2ccccc21 (stereo partly drawn) [Example 1, (3S)-3-[3(R,S)-1,3-Dihydro-2-oxo-5-phenyl((benzyloxycarbonyl)amino)-2H-1,4-benzodiazepin-1-acetylamino]-4-oxobutyric acid] |  |  | IC50 ([1]; Table 2, mature IL-1β in supernatant): 20 µM
O=C[C@H](CC(=O)O)NC(=O)CN1C(=O)C(NC(=O)c2nccc3ccccc23)N=C(c2ccccc2)c2ccccc21 (some centres unmarked) [Example 11] |  | 9 µM | 
Cc1cc(C(=O)NC2N=C(c3ccccc3)c3ccccc3N(CC(=O)N[C@H](C=O)CC(=O)O)C2=O)cc(C)c1O (some centres unmarked) [Example 19] | 10 µM |  | 
O=C[C@H](CC(=O)O)NC(=O)CN1C(=O)C(NC(=O)c2cc(Cl)c(O)c(Cl)c2)N=C(c2ccccc2)c2ccccc21 (some centres unmarked) [Example 21] | 10 µM |  | 
